Holding throughout (assay type): cell-based
The target in one assay is T1, human MRGPRX2 (Homo sapiens, UniProt Q96LB1).
T1 construct: expressed in transfected cells; host or cells: FlpIn TRex HEK293 (TRex-MRGPRX2-HEK), doxycycline-induced
T1 sequence (Q96LB1 1-330): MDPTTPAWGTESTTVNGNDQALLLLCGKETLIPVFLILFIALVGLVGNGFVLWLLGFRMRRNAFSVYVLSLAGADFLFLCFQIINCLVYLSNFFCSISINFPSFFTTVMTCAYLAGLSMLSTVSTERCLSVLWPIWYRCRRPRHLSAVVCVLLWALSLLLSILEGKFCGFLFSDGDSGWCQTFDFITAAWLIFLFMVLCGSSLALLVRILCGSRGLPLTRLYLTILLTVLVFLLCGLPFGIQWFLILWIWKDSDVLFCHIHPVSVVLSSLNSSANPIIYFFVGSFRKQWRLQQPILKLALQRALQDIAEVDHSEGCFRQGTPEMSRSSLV
The assay can be described thus: MRGPRX2 Activity Assay (IP-1 HTRF, antagonist mode). To be noted: FlpIn TRex-MRGPRX2-HEK293 cells; versus 1 μM Cortistatin-14 agonist; 30 minutes preincubation. Summed up:
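Doxycycline-induced (100 ng/mL, 18-24 h) TRex HEK293 cells stably expressing human MRGPRX2, in HBSS/20 mM HEPES/0.1% BSA/10 mM LiCl. Compounds (top final 30 uM, 1% DMSO) preincubated 30 min, then agonist stimulation 1 h at 37° C without wash. IP-1 accumulation read by HTRF; IC50 from 4-parameter fit.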
Background: Time-resolved FRET reads energy transfer from a long-lived donor to a nearby acceptor.

Assay [1] concerns LAD-2 cells. The experiment in a line: LAD2 Degranulation Assay (Protocol 1), β-hexosaminidase release. The settings on record: Homo sapiens, 1 μM Cortistatin-14, 30 minute preincubation, top concentration 3 μM. On the procedure: (§1) LAD-2 cells were maintained at 37° C. with 5% CO2 and grown in complete StemPro-34 media supplemented with 1% L-Glutamate, 1% penicillin/streptomycin, and 250 ng/mL human SCF.
On the day of experiment, cells were collected by centrifugation and seeded in 384-well assay plates, at 4,000 cells per well in 10 μl freshly made assay buffer (10 mM HEPES, 130 mM NaCl, 5 mM KCl, 1.8 mM CaCl2), 1.0 mM MgCl2, 5.6 mM glucose, 0.1% BSA, pH=7.40). For dose-response assays, compounds solubilized in 100% DMSO at 30 mM were serially diluted (1:3) first in 100% DMSO, and 2 intermediate dilutions with assay buffer were used to establish a final top concentration of 3 μM (in assay plate). Final DMSO concentration was kept constant at 0.1% across plates for all assays. Cortistatin-14 at 30 mM stock concentration was solubilized in HBSS+0.1% BSA, stored at −20° C. in 5 μl aliquots and discarded after one freeze-thaw cycle. Final concentration of agonist used in both dose-response and single point assays was 1 μM, prepared in assay buffer.
(§2) Antagonist equilibrium was established with 30 minute preincubation, followed by no wash, direct addition, and stimulation of agonist for 30 minutes at 37° C. For detection of β-hexosaminidase activity, assay plates were centrifuged and 5 μl of cell-free supernatant from each assay well was transferred to a black-walled black-bottomed 384-well plate. Substrate solution (1 mM 4-Methylumbelliferyl N-acetyl-β-D-glucosaminide in citrate buffer, pH=4.5, 15 μl) was added to each well and plates were incubated for 1 hour at 37° C. The plate was read on an EnVision XCite plate reader for umbelliferone fluorescence intensity (λex=355 nm, λem=460 nm). Background-subtracted data was analyzed using either GraphPad Prism or a custom Python script to calculate IC50 using either Log[Antagonist] vs. response (4 parameter) nonlinear regression (dose-response assays).

Assay [2] deals with LAD-2 cells. The experiment in a line: LAD2 Degranulation Assay (Protocol 2), β-hexosaminidase release. To be noted: Homo sapiens; for activity at 0.25 µM: single point 250 nM, 0.5 μM Cortistatin-14, % control β-hexosaminidase activity; for IC50: 0.5 μM Cortistatin-14, 2 h preincubation, cells without SCF 18-24 hours, top concentration 3 μM. The procedure: as §1
18-24 hours prior to experiment, LAD-2 cells were collected and transferred to growth media without SCF. On the day of experiment, cells were collected by centrifugation and seeded in 384-well assay plates, at 4,000 cells per well in 17 μl freshly made assay buffer (10 mM HEPES, 137 mM NaCl, 2.7 mM KCl, 1.8 mM CaCl2), 1.0 mM MgCl2, 5.6 mM glucose, 0.4 mM NaH2PO4, 0.04% BSA, pH=7.40). For dose-response assays, compounds solubilized in 100% DMSO at 30 mM were serially diluted (1:3) first in 100% DMSO, and 2 intermediate dilutions with assay buffer were used to establish a final top concentration of 3 μM (in assay plate). For single point assays, dilution of DMSO stocks to 250 nM (in assay plate) was performed in the same manner as described for dose-response assays. Final DMSO concentration was kept constant at 0.1% across plates for all assays. Cortistatin-14 at 30 mM stock concentration was solubilized in HBSS+0.1% BSA, stored at −20° C. in 5 μl aliquots and discarded after one freeze-thaw cycle. Final concentration of agonist used in both dose-response and single point assays was 0.5 μM, prepared in assay buffer.
as §2, with “with 2 h” for “with 30 minute”, “[…])” for “15 μl)”, “(dose-response assays) or % control β-hexosaminidase activity (single point” for “(dose-response”

The source of these data is patent publication US20250122171A1, “Substituted Amine Compounds, Compositions and Methods of Use” (Deep Apple Therapeutics, Inc., priority 2023, published 2025).

For orientation: IC50 means the concentration at which inhibition is half-maximal. A lower IC50 goes with greater potency in that assay. As to `C[C@@H](C(=O)Nc1cn(Cc2cc(F)cc(F)c2)c(Cl)n1)N1CCC(F)(F)[C@@H](c2cc[n+]([O-])cc2)C1` (single isomer, unassigned) [Compound 80], the results for the IC50 at human MRGPRX2 and in the assay on LAD-2 cells [1] were 755 nM and greater than 3000 nM, respectively.
Turning to `Cc1nc(NC(=O)[C@H](C)N2CCC(F)(F)[C@@H](c3cc[n+]([O-])cc3)C2)cn1Cc1cc(F)cc(F)c1` (single isomer, unassigned) [Compound 19], the results for the IC50 on human MRGPRX2 and with LAD-2 cells [1] were 2.1 nM and 1.6 nM, respectively.
Take `Cc1nc(NC(=O)[C@H](C)N2CCC(F)(F)[C@@H](c3cc[n+]([O-])cc3)C2)cn1Cc1ccc(F)cc1F` (single isomer, unassigned) [Compound 9]: the IC50 at human MRGPRX2 is 17 nM; with LAD-2 cells [1] it was 28 nM.
The like results for `C[C@@H](C(=O)Nc1cn(Cc2cc(F)c(F)c(F)c2)cn1)N1CCC(F)(F)[C@@H](c2cc[n+]([O-])cc2)C1` [Compound 34, 4-((S)-4,4-difluoro-1-((S)-1-oxo-1-((1-(3,4,5-trifluorobenzyl)-1H-imidazol-4-yl)amino)propan-2-yl)piperidin-3-yl)pyridine 1-oxide] were, in that order, 11 nM and 25 nM.
For `C[C@@H](C(=O)Nc1nc2n(n1)[C@H](c1cc(F)cc(F)c1)CC2)N1CCC(F)(F)[C@@H](c2ccc(=O)[nH]c2)C1` (single isomer, unassigned) [Compound 502], the activity at 0.25 µM in the assay on LAD-2 cells [2] stood at 44%.
In the case of `C[C@H](C(=O)Nc1cn2c(n1)CC[C@@H]2c1cc(F)cc(F)c1)N1CCCCC1` (single isomer, unassigned) [Compound 498], the half-inhibitory concentration (IC50) at human MRGPRX2 was found to be 686 nM; with LAD-2 cells [2], 79 nM.
The compound `C[C@@H](C(=O)Nc1cc2n(n1)CC[C@@H]2c1cc(F)cc(F)c1)N1CCC(F)(F)[C@@H](c2ccc(=O)[nH]c2)C1` (single isomer, unassigned) [Compound 530] registered an IC50 in the assay on LAD-2 cells [2] of 0.81 nM.
For `C[C@@H](C(=O)Nc1cn2c(n1)CC[C@H]2c1cc(F)cc(F)c1)N1CCCCC1` (single isomer, unassigned) [Compound 500], the IC50 was greater than 30000 nM on human MRGPRX2 and greater than 3000 nM in the assay on LAD-2 cells [2].
Take `C[C@@H](C(=O)Nc1cc2n(n1)CC[C@H]2c1cc(F)cc(F)c1)N1CCC(F)(F)[C@@H](c2ccc(=O)[nH]c2)C1` (single isomer, unassigned) [Compound 531]: the values for the IC50 at human MRGPRX2 and in the assay with LAD-2 cells [2] were 592 nM and 614 nM, respectively.
Consider `C[C@@H](C(=O)Nc1cn2c(n1)CC[C@@H]2c1cc(F)cc(F)c1)N1CCC(F)(F)C(c2cc[n+]([O-])c(C(O)CO)c2)C1` (stereo partly drawn) [Compound 545, 4-(1-((S)-1-(((R)-5-(3,5-difluorophenyl)-6,7-dihydro-5H-pyrrolo[1,2-a]imidazol-2-yl)amino)-1-oxopropan-2-yl)-4,4-difluoropiperidin-3-yl)-2-(1,2-dihydroxyethyl)pyridine 1-oxide], for which the activity at 0.25 µM with LAD-2 cells [2] amounted to 16%.
Turning to `C[C@@H](C(=O)Nc1nc2n(n1)[C@@H](c1cc(F)cc(F)c1)CC2)N1CCC(F)(F)[C@@H](c2ccc(=O)[nH]c2)C1` (single isomer, unassigned) [Compound 501], the activity at 0.25 µM in the assay on LAD-2 cells [2] is 101%.
`C[C@@H](C(=O)Nc1cn2c(n1)CCC[C@H]2c1cc(F)cc(F)c1)N1CCC(F)(F)[C@@H](c2ccc(=O)[nH]c2)C1` (single isomer, unassigned) [Compound 508]: the activity at 0.25 µM in the assay with LAD-2 cells [2] is 110%.
On to `C[C@@H](C(=O)Nc1cn2c(n1)CC[C@@H]2c1cc(F)cc(F)c1)N1CCC(F)(F)[C@@H](c2ccc(=O)[nH]c2)C1` (single isomer, unassigned) [Compound 493], for which the values for the IC50 at human MRGPRX2 and in the assay on LAD-2 cells [2] were greater than 30000 nM and greater than 3000 nM, respectively.
The compound `C[C@@H](C(=O)Nc1cn2c(n1)CC[C@H]2c1ccc(F)cc1F)N1CCC(F)(F)[C@@H](c2ccc(=O)[nH]c2)C1` (single isomer, unassigned) [Compound 506] yielded an IC50 with LAD-2 cells [2] of 30 nM.
As for `C[C@@H](C(=O)Nc1cn2c(n1)CC[C@@H]2c1cc(F)cc(F)c1)N1CCC(F)(F)[C@H](c2c[nH]c(=O)c(C(N)C(F)(F)F)c2)C1` (single isomer, unassigned) [Compound 541], the activity at 0.25 µM in the assay with LAD-2 cells [2] was determined as 11%.
For `C[C@H](C(=O)Nc1cn2c(n1)CC[C@H]2c1cc(F)cc(F)c1)N1CCCCC1` (single isomer, unassigned) [Compound 499], the IC50 at human MRGPRX2 is greater than 30000 nM; with LAD-2 cells [2] it was greater than 3000 nM.
Consider `C[C@@H](C(=O)Nc1cn2c(n1)CC[C@H]2c1cc(F)cc(F)c1)N1CCC(F)(F)CC1` (single isomer, unassigned) [Compound 510], for which, in the assay with LAD-2 cells [2], the activity at 0.25 µM turned out to be 87%.
Turning to `C[C@@H](C(=O)Nc1cn(Cc2cc(F)cc(F)c2)c(C(F)F)n1)N1CCC(F)(F)[C@@H](c2c[nH]c(=O)c(CO)c2)C1` (single isomer, unassigned) [Compound 490], the IC50 on human MRGPRX2 amounted to 3.5 nM; with LAD-2 cells [2], 34 nM.
For the compound `C[C@@H](C(=O)Nc1cn2c(n1)CCC[C@@H]2c1cc(F)cc(F)c1)N1CCC(F)(F)[C@@H](c2ccc(=O)[nH]c2)C1` (single isomer, unassigned) [Compound 507], in the assay with LAD-2 cells [2], the activity at 0.25 µM amounted to 130%.
Consider `C[C@@H](C(=O)Nc1cn2c(n1)CC[C@@H]2c1cc(F)cc(F)c1)N1CCC(F)(F)[C@@H](c2c[nH]c(=O)c(C(N)C(F)(F)F)c2)C1` (single isomer, unassigned) [Compound 540], for which the activity at 0.25 µM in the assay with LAD-2 cells [2] amounted to 124%.
With `C[C@@H](C(=O)Nc1cn2c(n1)CC[C@@H]2c1cc(F)cc(F)c1)N1CCC(F)(F)C(c2c[nH]c(=O)c(C(O)CO)c2)C1` (stereo partly drawn) [Compound 546, (2S)—N—((R)-5-(3,5-difluorophenyl)-6,7-dihydro-5H-pyrrolo[1,2-a]imidazol-2-yl)-2-(3-(5-(1,2-dihydroxyethyl)-6-oxo-1,6-dihydropyridin-3-yl)-4,4-difluoropiperidin-1-yl)propanamide], the activity at 0.25 µM with LAD-2 cells [2] amounted to 34%.
As to `C[C@@H](C(=O)Nc1cn2c(n1)CC[C@@H]2c1ccc(F)cc1F)N1CCC(F)(F)[C@@H](c2ccc(=O)[nH]c2)C1` (single isomer, unassigned) [Compound 505], in the assay with LAD-2 cells [2], the IC50 was greater than 3000 nM and the activity at 0.25 µM came out at 106%.
On to `C[C@@H](C(=O)Nc1cn2c(n1)CC[C@H]2c1cc(F)ccc1F)N1CCC(F)(F)[C@@H](c2ccc(=O)[nH]c2)C1` (single isomer, unassigned) [Compound 504], for which, in the assay with LAD-2 cells [2], half-maximal inhibition (IC50) required 31 nM and the activity at 0.25 µM was determined as 13%.
